Here are results for ten compounds from publication PMC9606943, “Synthesis and Chemopreventive Potential of 5-FU/Genistein Hybrids on Colorectal Cancer Cells” (Pharmaceuticals, 2022).

Read-outs that look alike come from different tables or passages of the source.

One series concerns SW620. Put plainly: Sulforhodamine B cytotoxicity assay, SW620. The class given is cell-based, human. To be noted: 48 h; for IC50: mean ± SE. Here is the method:
(§1) Two colon cancer cells (SW480 and SW620) and non-malignant cell lines (human keratinocytes, HaCaT; chinese hamster ovary, CHO-K1) were obtained from The European Collection of Authenticated Cell Cultures (ECACC, England). For biological evaluations, cells were cultured in Dulbecco’s Modified Eagle Medium, supplemented with 10% heat-inactivated (56 °C) horse serum, 1% penicillin/streptomycin and 1% non-essential amino acids (Gibco Invitrogen, Carlsbad, CA, USA). During the treatments, the serum was reduced to 3%, and the medium was supplemented with insulin ([…]) transferrin ([…]) and selenium (5 ng/mL) (ITS-defined medium; Gibco, Invitrogen, Carlsbad, USA). To avoid Mycoplasma spp. contamination, cell cultures were regularly tested by polymerase chain reaction.
(§2) Briefly, cells were seeded at 20,000 cells/well (for cytotoxicity assay) and 2500 cells/well (for the antiproliferative test) in 96-well tissue culture plates, incubating at 37 °C in a humidified atmosphere with 5% CO2. After the adaptation time (24 h), cells were treated with increasing concentrations of the hybrid molecules or DMSO (1%). At the end of each treatment, cells were fixed with trichloroacetic acid (50% v/v; MERCK) for one hour at 4 °C. Subsequently, cell proteins were stained with SRB (0.4% w/v; Sigma-Aldrich, United States) and washed with acetic acid (1%). After drying at room temperature, Tris-base (10 mM) was added to solubilize protein bound stain. Absorbance was read in a microplate reader (Mindray MR-96A) at 492 nm. All experiments were performed at least in duplicate.

In a further series the test system is HaCaT. Put plainly: Sulforhodamine B cytotoxicity assay, HaCaT. The class given is cell-based, human. To be noted: 48 h, mean ± SE, non-malignant cells. Here is the method:
as §1, §2

Another series relates to SW480. Put plainly: Sulforhodamine B cytotoxicity assay, SW480. To be noted: 48 h; for IC50: mean ± SE. The class given is cell-based, human. Here is the method: as §1, §2
On the technique in general: Sulforhodamine B stains cellular protein and so reports cell mass.

In another series the test system is CHO-K1. Put plainly: Sulforhodamine B cytotoxicity assay, CHO-K1. Format: cell-based, chinese hamster. The settings on record: 48 h, mean ± SE, non-malignant cells. Here is the method: as §1, §2
The test system of a further series is normal VERO cells. To be noted: cited from earlier work.
Series [1] relates to human gastric cancer cell line (SGC-7901). Set-up: method as in doi:10.1039/C6MD00268D. The settings on record: cited from earlier work.

As to `O=c1c(-c2ccc(O)cc2)coc2cc(O)cc(O)c12` [Genistein], the “Selectivity Index (SI) CHO-K1/620” value with SW620 stood at 0.64. In the series on SW620, the “Selectivity Index (SI) HaCaT/SW620” value turned out to be 0.63. Further, the IC50 came out at 75.8 ± 5.83 µM in the series with SW620 (Homo sapiens, SW-620); 45.9 ± 1.97 µM in the series with HaCaT (Homo sapiens, HaCaT); 48.1 ± 3.03 µM in the series with SW480 (Homo sapiens, SW480); 48.4 ± 4.13 µM with CHO-K1 (Cricetulus griseus, CHO-K1). The “Selectivity Index (SI) CHO-K1/SW480” value in the series on SW480 was found to be 1.01. Further, the “Selectivity Index (SI) HaCaT/SW480” value in the series with SW480 is recorded as 0.95.
“5-fluoro-1-((1-(3-((5-hydroxy-3-(4-hydroxyphenyl)-4-oxo-4H-chromen-7-yl)oxy)dodecyl)-1H-1,2,3-triazol-4-yl)methyl)pyrimidine-2,4(1H,3H)-dione”: the “Selectivity Index (SI) CHO-K1/620” value in the series on SW620 is on record as more than 1.20. Also, in the series on SW620, the “Selectivity Index (SI) HaCaT/SW620” value is more than 1.20. Further, the IC50 in the series with SW620 is 83.6 ± 8.05 µM; with HaCaT, more than 100 µM; with SW480, more than 100 µM; in the series with CHO-K1, more than 100 µM.
Regarding “5-fluoro-1-((1-(3-((5-hydroxy-3-(4-hydroxyphenyl)-4-oxo-4H-chromen-7-yl)oxy)pentyl)-1H-1,2,3-triazol-4-yl)methyl)pyrimidine-2,4(1H,3H)-dione [4d]”, the IC50 with SW620, with HaCaT, in the series on SW480 and in the series with CHO-K1 was more than 100 µM in each case.
Take `O=c1[nH]c(=O)n(Cc2cn(CCCOc3cc(O)c4c(=O)c(-c5ccc(O)cc5)coc4c3)nn2)cc1F` [4b, 5-fluoro-1-((1-(3-((5-hydroxy-3-(4-hydroxyphenyl)-4-oxo-4H-chromen-7-yl)oxy)propyl)-1H-1,2,3-triazol-4-yl)methyl)pyrimidine-2,4(1H,3H)-dione]: the melting point lay in the range of 175 to 178 °C. The compound further showed an IC50 with SW620 (Homo sapiens, SW-620) of more than 100 µM. Also, in the series on HaCaT (Homo sapiens, HaCaT), the IC50 was more than 100 µM. In the series with SW480 (Homo sapiens, SW480), this compound returned an IC50 of more than 100 µM. This compound gave an IC50 in the series on CHO-K1 (Cricetulus griseus, CHO-K1) of more than 100 µM.
On to “5-fluoro-1-((1-(3-((5-hydroxy-3-(4-hydroxyphenyl)-4-oxo-4H-chromen-7-yl)oxy)octyl)-1H-1,2,3-triazol-4-yl)methyl)pyrimidine-2,4(1H,3H)-dione [4f]”, for which, in the series with SW620, the “Selectivity Index (SI) CHO-K1/620” value is on record as more than 2.11, the “Selectivity Index (SI) HaCaT/SW620” value amounted to 1.05 and it took 47.4 ± 2.19 µM to reach half-maximal inhibition (IC50). For the same compound, half-maximal inhibition with HaCaT (IC50) required 50 ± 7.17 µM. In addition, in the series on SW480, the “Selectivity Index (SI) CHO-K1/SW480” value is on record as more than 1.02, the “Selectivity Index (SI) HaCaT/SW480” value is on record as 0.51 and the IC50 is 97.5 ± 5.04 µM. The IC50 in the series with CHO-K1 was more than 100 µM.
In the case of “5-fluoro-1-((1-(3-((5-hydroxy-3-(4-hydroxyphenyl)-4-oxo-4H-chromen-7-yl)oxy)hexyl)-1H-1,2,3-triazol-4-yl)methyl)pyrimidine-2,4(1H,3H)-dione [4e]”, the IC50 in the series on SW620, with HaCaT, in the series on SW480 and in the series with CHO-K1 was more than 100 µM each time.
On to `O=c1[nH]cc(F)c(=O)[nH]1` [5-FU, 5-fluorouracil], for which, in the series with normal VERO cells, the IC50 was 3.33 µM. The “selectivity index SGC-7901 versus GES-1” value in series [1] (at 50 µM) is 0.88. Besides, the “selectivity index SGC-7901 versus GES-1” value in series [1] (at the concentration of 10 µM) is on record as 0.74. Besides, in the series with SW480, the “Selectivity Index (SI) CHO-K1/SW480” value turned out to be 0.99 and the “Selectivity Index (SI) HaCaT/SW480” value is reported as 0.68.
On to “5-fluoro-1-((1-(3-((5-hydroxy-3-(4-hydroxyphenyl)-4-oxo-4H-chromen-7-yl)oxy)butyl)-1H-1,2,3-triazol-4-yl)methyl)pyrimidine-2,4(1H,3H)-dione [4c]”, for which the IC50 with SW620, with HaCaT, in the series on SW480 and with CHO-K1 was more than 100 µM each time.
As to `O=C(Cn1cc(F)c(=O)[nH]c1=O)OCC[n+]1ccc(/C=C/c2c[nH]c3ccccc23)cc1` [C1], the “selectivity index SGC-7901 versus GES-1” value in series [1] (at the concentration of 10 µM) is listed as 1.16.
For the compound `O=C(Cn1cc(F)c(=O)[nH]c1=O)NCC[n+]1ccc(/C=C/c2c[nH]c3ccccc23)cc1` [C2], the “selectivity index SGC-7901 versus GES-1” value in series [1] (at 50 µM) was 1.20; in series [1] (at the concentration of 10 µM), 1.08.

The term IC50 denotes the concentration needed to halve the response being measured. As a reminder, the melting point is the temperature, or range, at which the solid turns liquid.
